US10722514B2 (FLX Bio, Inc., priority 2017, dated 2020)
Where a name gives a salt, the structure may show the parent alone.

These compounds were tested against T1, recombinant full-length USP7 (Homo sapiens, UniProt Q93009) (assay: USP7-mediated ubiquitin-rhodamine cleavage assay). Settings: recombinant full-length USP7 62 pM; ubiquitin-rhodamine 100 nM; 30-minute incubation with compound, 1 hour reaction at room temperature; read-out: Potency: USP7 IC50.
T1 construct: A 25 μl reaction volume containing recombinant full-length USP7 (62 pM)
Type: biochemical
Procedure: In the case of the USP7 deubiquitylating enzyme, the IC50 of an USP7 inhibiting compound is the concentration of the compound that inhibits 50% of the activity observed in a USP7-mediated ubiquitin-rhodamine cleavage assay.
For the USP7 inhibitors disclosed herein, their potency was measured using the following test method.
A 25 μl reaction volume containing recombinant full-length USP7 (62 pM) in 20 mM HEPES pH 7.3, 150 mM NaCl, 1 mM TCEP, and 125 μg/ml BSA was assembled in wells of 384 well plates. Test compounds were dispensed with a Hewlett Packard D300 digital dispenser (1% final DMSO). Following a 30-minute incubation at room temperature, ubiquitin-rhodamine was added with the D300 to a final concentration of 100 nM and the reaction was allowed to proceed for 1 hour at room temperature protected from light. The reaction was stopped by the addition of 5 μl 1M acetic acid. Rhodamine fluorescence was measured using an Envision plate reader (Perkin Elmer) and IC50 values were determined by non-linear regression using a 4-parameter fit in a Dotmatics (Bishops Stortford, Hertfordshire, England) software package.

T1 sequence (Q93009 whole entry): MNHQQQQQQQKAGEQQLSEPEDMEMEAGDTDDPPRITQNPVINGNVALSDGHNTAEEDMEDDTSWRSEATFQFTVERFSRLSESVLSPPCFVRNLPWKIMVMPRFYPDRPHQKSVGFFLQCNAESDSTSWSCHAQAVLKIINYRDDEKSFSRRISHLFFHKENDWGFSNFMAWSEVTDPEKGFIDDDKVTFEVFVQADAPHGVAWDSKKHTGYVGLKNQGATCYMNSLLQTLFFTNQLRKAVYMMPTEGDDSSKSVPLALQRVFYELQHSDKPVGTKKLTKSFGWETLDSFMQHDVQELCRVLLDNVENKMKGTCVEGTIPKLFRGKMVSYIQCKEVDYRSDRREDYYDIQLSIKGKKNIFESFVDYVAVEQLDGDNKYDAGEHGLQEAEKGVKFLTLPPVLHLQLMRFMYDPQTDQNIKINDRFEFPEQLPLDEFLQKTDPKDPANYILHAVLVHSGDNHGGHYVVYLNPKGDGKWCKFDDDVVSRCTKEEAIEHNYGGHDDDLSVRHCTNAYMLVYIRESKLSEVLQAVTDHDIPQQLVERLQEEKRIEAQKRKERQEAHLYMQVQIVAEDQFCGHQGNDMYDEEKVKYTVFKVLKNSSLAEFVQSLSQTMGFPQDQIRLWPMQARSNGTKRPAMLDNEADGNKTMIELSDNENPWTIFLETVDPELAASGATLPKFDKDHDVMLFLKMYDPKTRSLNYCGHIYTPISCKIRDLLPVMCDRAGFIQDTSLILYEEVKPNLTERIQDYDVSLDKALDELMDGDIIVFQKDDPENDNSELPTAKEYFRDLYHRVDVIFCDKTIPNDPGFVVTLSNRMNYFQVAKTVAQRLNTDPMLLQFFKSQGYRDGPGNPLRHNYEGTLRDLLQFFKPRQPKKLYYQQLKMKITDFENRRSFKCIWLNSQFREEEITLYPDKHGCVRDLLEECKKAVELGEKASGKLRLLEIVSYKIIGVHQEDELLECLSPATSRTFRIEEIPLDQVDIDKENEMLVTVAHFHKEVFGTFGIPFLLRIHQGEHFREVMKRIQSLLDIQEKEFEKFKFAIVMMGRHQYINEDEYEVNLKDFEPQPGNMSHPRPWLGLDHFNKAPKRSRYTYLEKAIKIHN

IC50 [µM] | Compound
1 to 10 | OCc1cc2nccc(-c3cc(Cl)cc(Br)c3OCC3CNC3)c2s1 [Example 21, (7-(2-(Azetidin-3-ylmethoxy)-3-bromo-5-chlorophenyl)thieno[3,2-b]pyridin-2-yl)methanol]
10 to 30 | CCC(O)c1cc2nccc(-c3cc(Cl)cc(C)c3OC(C)C3CNC3)c2s1 (centres unmarked) [Example 34, 1-(7-(2-(1-(Azetidin-3-yl)ethoxy)-5-chloro-3-methylphenyl)thieno[3,2-b]pyridin-2-yl)propan-1-ol]
1 to 10 | Cc1cc(Cl)cc(-c2ccnc3cc(CN4C(=O)C5CCCCC5C4=O)sc23)c1OC1CCNCC1 (centres unmarked) [Example 217]
10 to 30 | Cc1cc(Cl)cc(-c2ccnc3cc(CCN4C(=O)c5ccccc5S4(=O)=O)sc23)c1O[C@@H]1CNC[C@@H]1F [Example 139, 2-(2-(7-(5-Chloro-2-(((3R,4S)-4-fluoropyrrolidin-3-yl)oxy)-3-methylphenyl)thieno[3,2-b]pyridin-2-yl)ethyl)benzo[d]isothiazol-3(2H)-one 1,1-dioxide]
< 1 | Cc1cc(Cl)cc(-c2ccnc3cc(Cn4c(=O)ccn(C5CC5)c4=O)sc23)c1O[C@H]1CCCNC1 [Example 285, 3-[[7-[5-chloro-3-methyl-2-[[(3S)-3-piperidyl]oxy]phenyl]thieno[3,2-b]pyridin-2-yl]methyl]-1-cyclopropyl-pyrimidine-2,4-dione; 2,2,2-trifluoroacetic acid]
1 to 10 | Cc1cc(Cl)cc(-c2ncnc3cc(CN4C(=O)CSC4=O)sc23)c1OC1CCNCC1 [Example 226, 3-((4-(5-Chloro-3-methyl-2-(piperidin-4-yloxy)phenyl)thieno[3,2-d]pyrimidin-6-yl)methyl)thiazolidine-2,4-dione]
< 1 | Cc1cc(Cl)cc(-c2ccnc3cc(CN4C(=O)C5C(C4=O)C5(C)C)sc23)c1OC1(C)CNC1 (centres unmarked) [Example 393, 3-[[7-[5-chloro-3-methyl-2-(3-methylazetidin-3-yl)oxy-phenyl]thieno[3,2-b]pyridin-2-yl]methyl]-6,6-dimethyl-3-azabicyclo[3.1.0]hexane-2,4-dione dihydrochloride]
< 1 | Cc1cc(Cl)cc(-c2ccnc3c(F)c(CN4C(=O)CCC4=O)sc23)c1O[C@@H]1CNC[C@@H]1F [Example 65, 1-((7-(5-Chloro-2-(((3R,4S)-4-fluoropyrrolidin-3-yl)oxy)-3-methylphenyl)-3-fluorothieno[3,2-b]pyridin-2-yl)methyl)pyrrolidine-2,5-dione]
< 1 | CCN1C[C@H]2C[C@@H]1[C@H](Oc1c(C)cc(Cl)cc1-c1ccnc3cc(CN4C(=O)C5CC5C4=O)sc13)C2 (stereo partly drawn) [Example 320, 3-[[7-[5-chloro-2-[[(1S,4R,5R)-3-ethyl-3-azabicyclo[2.2.1]heptan-5-yl]oxy]-3-methyl-phenyl]thieno[3,2-b]pyridin-2-yl]methyl]-3-azabicyclo[3.1.0]hexane-2,4-dione]
< 1 | Cc1cc(Cl)cc(-c2ncnc3cc(CN4C(=O)C5CC5C4=O)sc23)c1O[C@H]1CCCNC1 (stereo partly drawn) [Example 245, 3-((4-(5-Chloro-3-methyl-2-(((S)-piperidin-3-yl)oxy)phenyl)thieno[3,2-d]pyrimidin-6-yl)methyl)-3-azabicyclo[3.1.0]hexane-2,4-dione]
< 1 | Cc1cc(Cl)cc(-c2ccnc3cc(CN4C(=O)CCC4C(F)(F)F)sc23)c1O[C@@H]1CNC[C@@H]1F (stereo partly drawn) [Example 147, 1-((7-(5-Chloro-2-(((3R,4S)-4-fluoropyrrolidin-3-yl)oxy)-3-methylphenyl)thieno[3,2-b]pyridin-2-yl)methyl)-5-(trifluoromethyl)pyrrolidin-2-one]
< 1 | Cc1cc(Cl)cc(-c2ncnc3cc(CN4C(=O)C5C(C4=O)C5(C)C)sc23)c1O[C@@H]1CNCC[C@@H]1C (stereo partly drawn) [Example 350, 3-[[4-[5-chloro-3-methyl-2-[[(3S,4S)-4-methyl-3-piperidyl]oxy]phenyl]thieno[3,2-d]pyrimidin-6-yl]methyl]-6,6-dimethyl-3-azabicyclo[3.1.0]hexane-2,4-dione]

Compound | IC50 [µM]
Cc1cc(Cl)cc(-c2ccnc3cc(Cn4c(=O)ccn(CC(F)(F)F)c4=O)sc23)c1O[C@H]1C[C@H](N)C1 [Example 277, 3-((7-(2-((1r,3r)-3-Aminocyclobutoxy)-5-chloro-3-methylphenyl)thieno[3,2-b]pyridin-2-yl)methyl)-1-(2,2,2-trifluoroethyl)pyrimidine-2,4(1H,3H)-dione] | < 1

Same assay, conditions: recombinant full-length USP7 62 pM; ubiquitin-rhodamine 100 nM; 30-minute pre-incubation, 1 hour reaction at room temperature; read-out: Potency (USP7 IC50)

IC50 [µM] | Compound
< 1 | Cc1cc(Cl)cc(-c2ccnc3cc(Cn4c(=O)ccn(CC(F)(F)F)c4=O)sc23)c1O[C@@H]1CCN(C(=O)C(F)(F)F)C[C@@H]1C [Example 609, 3-[[7-[5-chloro-3-methyl-2-[[(3S,4R)-3-methyl-1-(2,2,2-trifluoroacetyl)-4-piperidyl]oxy]phenyl]thieno[3,2-b]pyridin-2-yl]methyl]-1-(2,2,2-trifluoroethyl)pyrimidine-2,4-dione]
< 1 | Cc1cc(Cl)cc(-c2ccnc3cc(Cn4c(=O)ccn(CC(F)(F)F)c4=O)sc23)c1O[C@@H]1CCNC[C@H]1C [Example 558, 3-[[7-[5-chloro-3-methyl-2-[[(3R,4R)-3-methyl-4-piperidyl]oxy]phenyl]thieno[3,2-b]pyridin-2-yl]methyl]-1-(2,2,2-trifluoroethyl)pyrimidine-2,4-dione]
< 1 | Cc1cc(Cl)cc(-c2ccnc3cc(Cn4c(=O)ccn(C)c4=O)sc23)c1O[C@@H]1CCN(CCO)C[C@@H]1C [Example 475, 3-[[7-[5-chloro-2-[[(3S,4R)-1-(2-hydroxyethyl)-3-methyl-4-piperidyl]oxy]-3-methyl-phenyl]thieno[3,2-b]pyridin-2-yl]methyl]-1-methyl-pyrimidine-2,4-dione]
< 1 | Cc1cc(Cl)cc(-c2ccnc3cc(Cn4c(=O)ccn(C)c4=O)sc23)c1OC1CC2CNC1C2 (centres unmarked) [Example 418]
< 1 | Cc1cc(Cl)cc(-c2ccnc3cc(Cn4c(=O)ccn(CC(F)(F)F)c4=O)sc23)c1O[C@@H]1CCN(CC(F)F)C[C@@H]1C [Example 642, 3-[[7-[5-chloro-2-[[(3S,4R)-1-(2,2-difluoroethyl)-3-methyl-4-piperidyl]oxy]-3-methyl-phenyl]thieno[3,2-b]pyridin-2-yl]methyl]-1-(2,2,2-trifluoroethyl)pyrimidine-2,4-dione]
< 1 | Cc1cc(Cl)cc(-c2ccnc3cc(Cn4c(=O)ccn(CC(F)(F)F)c4=O)sc23)c1O[C@@H]1C[C@@H]2C[C@H]1CN2 [Example 637, 3-[[7-[2-[[(1S,4S,5R)-2-azabicyclo[2.2.1]heptan-5-yl]oxy]-5-chloro-3-methyl-phenyl]thieno[3,2-b]pyridin-2-yl]methyl]-1-(2,2,2-trifluoroethyl)pyrimidine-2,4-dione; 2,2,2-trifluoroacetic acid]
< 1 | Cc1cc(Cl)cc(-c2ccnc3cc(Cn4c(=O)ccn(C)c4=O)sc23)c1OC1CNCCC1(C)C (centres unmarked) [Example 592, 3-[[7-[5-chloro-2-[(4,4-dimethyl-3-piperidyl)oxy]-3-methyl-phenyl]thieno[3,2-b]pyridin-2-yl]methyl]-1-methyl-pyrimidine-2,4-dione]
1 to 10 | Cc1cc(Cl)cc(-c2ccnc(CCCN3C(=O)CCC3=O)c2)c1OC1CCNCC1 [Example 410, 1-[3-[4-[5-chloro-3-methyl-2-(4-piperidyloxy)phenyl]-2-pyridyl]propyl]pyrrolidine-2,5-dione; 2,2,2-trifluoroacetic acid]
< 1 | Cc1cc(Cl)cc(-c2ccnc3cc(Cn4c(=O)ccn(C(C)C)c4=O)sc23)c1OC1CN2CCC1C2 [Example 590, 3-[[7-[2-[[(1S,3S,4R)-1-azabicyclo[2.2.1]heptan-3-yl]oxy]-5-chloro-3-methyl-phenyl]thieno[3,2-b]pyridin-2-yl]methyl]-1-isopropyl-pyrimidine-2,4-dione]
< 1 | Cc1cc(Cl)cc(-c2ccnc3cc(CN4C(=O)CCC4=O)sc23)c1OC1CC[C@H](C)NC1 (stereo partly drawn) [Example 462, 1-[[7-[5-chloro-3-methyl-2-[[(6S)-6-methyl-3-piperidyl]oxy]phenyl]thieno[3,2-b]pyridin-2-yl]methyl]pyrrolidine-2,5-dione; 2,2,2-trifluoroacetic acid]
< 1 | Cc1cc(Cl)cc(-c2ccnc3cc(Cn4c(=O)ccn(CC(F)(F)F)c4=O)sc23)c1O[C@@H]1CN[C@@H](C(C)(C)O)C1 [Example 635, 3-[[7-[5-chloro-2-[(3S,5R)-5-(1-hydroxy-1-methyl-ethyl)pyrrolidin-3-yl]oxy-3-methyl-phenyl]thieno[3,2-b]pyridin-2-yl]methyl]-1-(2,2,2-trifluoroethyl)pyrimidine-2,4-dione]
< 1 | Cc1cc(Cl)cc(-c2ccnc3cc(Cn4c(=O)c(F)cn(C(C)C)c4=O)sc23)c1O[C@H]1CCCNC1 [Example 547, 3-[[7-[5-chloro-3-methyl-2-[[(3S)-3-piperidyl]oxy]phenyl]thieno[3,2-b]pyridin-2-yl]methyl]-5-fluoro-1-isopropyl-pyrimidine-2,4-dione]
< 1 | Cc1cc(Cl)cc(-c2ncnc3cc(Cn4c(=O)ccn(C(C)C)c4=O)sc23)c1O[C@@H]1CCN(C)C[C@@H]1C [Example 510, 3-[[4-[5-chloro-2-[[(3S,4R)-1,3-dimethyl-4-piperidyl]oxy]-3-methyl-phenyl]thieno[3,2-d]pyrimidin-6-yl]methyl]-1-isopropyl-pyrimidine-2,4-dione]
